Read-outs that look alike come from different tables or passages of the source. Blank lines part the entries; values can stand above or below the molecule they belong to. Non-standard residues stand in square brackets, D forms with d. Residues, ends and D or L forms follow the SMILES beside them. *: point of attachment. DOTA = O=C(O)CN1CCN(CC(=O)O)CCN(CC(=O)*)CCN(CC(=O)O)CC1; Bpa = N[C@@H](Cc1ccc(C(=O)c2ccccc2)cc1)C(=O)O; d2Nal = N[C@H](Cc1ccc2ccccc2c1)C(=O)O; DO3A10CM = not defined here; azaGly = NNC(=O)O; Sar = CNCC(=O)O
Experiments:
[1] = tested on: LHRH binding sites on human ovarian cancer cells (EFO-27);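 also: Cell-associated radioactivity on confluent EFO-27 monolayers in 96-well plates, measured by microplate scintillation counting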
[2] = target: LHRH binding sites on EFO-27 human ovarian cancer cells (human); assay: competition with [125I-Tyr8]BRU-2477 on EFO-27 cells
[3] = Table 5: modifications of amino acids at positions 1 and 2, in vitro binding on EFO-27 cells

EC50 [1]: 0.72 µM
Molecule: N=C(N)NCCC[C@H](NC(=O)[C@@H](Cc1ccc2ccccc2c1)NC(=O)CN1CCN(CC(=O)O)CCN(CC(=O)O)CCN(CC(=O)O)CC1)C(=O)N[C@@H](Cc1c[nH]c2ccccc12)C(=O)N[C@@H](CO)C(=O)N[C@@H](Cc1c[nH]cn1)C(=O)N[C@H](CCCNC(=N)N)C(=O)N[C@@H](Cc1c[nH]c2ccccc12)C(=O)N[C@@H](Cc1ccc(C(=O)c2ccccc2)cc1)C(=O)O [BRU-3064, DO3A10CM-Dna12-Arg-Trp-Ser-His-Darg-Trp-Bpa4-OH] ({DOTA}-[d2Nal]RWSH[dR]W[Bpa]-OH)

Molecule: CN(CC(=O)N[C@@H](Cc1ccccc1)C(=O)N[C@@H](Cc1c[nH]c2ccccc12)C(=O)N[C@@H](CO)C(=O)N[C@@H](Cc1c[nH]cn1)C(=O)N[C@H](CCCNC(=N)N)C(=O)N[C@@H](Cc1c[nH]c2ccccc12)C(=O)N[C@@H](Cc1ccc(C(=O)c2ccccc2)cc1)C(=O)N1CCC[C@H]1C(=O)NNC(N)=O)C(=O)CN1CCN(CC(=O)O)CCN(CC(=O)O)CCN(CC(=O)O)CC1 [BRU-2738] ({DOTA}-[Sar]FWSH[dR]W[Bpa]P[azaGly]-NH2)
EC50 [1, 3]: 1.22 µM

EC50 [1]: ≤ 0.2 µM
Molecule: N=C(N)NCCC[C@H](NC(=O)[C@H](N)Cc1ccc2ccccc2c1)C(=O)N[C@@H](Cc1c[nH]c2ccccc12)C(=O)N[C@@H](CO)C(=O)N[C@@H](Cc1c[nH]cn1)C(=O)N[C@H](CCCNC(=N)N)C(=O)N[C@@H](Cc1c[nH]c2ccccc12)C(=O)N[C@@H](Cc1ccc(C(=O)c2ccccc2)cc1)C(=O)N1CCC[C@H]1C(=O)NCCCCNC(=O)CN1CCN(CC(=O)O)CCN(CC(=O)O)CCN(CC(=O)O)CC1 [BRU-3042]

Molecule: N=C(N)NCCC[C@H](NC(=O)[C@@H](Cc1ccc2ccccc2c1)NC(=O)CN1CCN(CC(=O)O)CCN(CC(=O)O)CCN(CC(=O)O)CC1)C(=O)N[C@@H](Cc1c[nH]c2ccccc12)C(=O)N[C@@H](CO)C(=O)N[C@@H](Cc1c[nH]cn1)C(=O)N[C@H](CCCNC(=N)N)C(=O)N[C@@H](Cc1c[nH]c2ccccc12)C(=O)N[C@@H](Cc1ccc(C(=O)c2ccccc2)cc1)C(=O)N1C[C@H](c2ccccc2)C[C@H]1C(=O)NNC(N)=O [BRU-2953]
binding potency, times lower than BRU-2813 ([1]; ratio of EC50 to BRU-2813 (EC50=0.33 μM)): 2

EC50 [1]: 0.24 ± 0.08 µM
Molecule: CNCC(=O)N[C@@H](CCCNC(=N)N)C(=O)N[C@@H](Cc1c[nH]c2ccccc12)C(=O)N[C@@H](CO)C(=O)N[C@@H](Cc1c[nH]cn1)C(=O)N[C@H](CCCNC(=N)N)C(=O)N[C@@H](Cc1c[nH]c2ccccc12)C(=O)N[C@@H](Cc1ccc(C(=O)c2ccccc2)cc1)C(=O)N1CCC[C@H]1C(=O)NCCCN1CCN(CCCNC(=O)CN2CCN(CC(=O)O)CCN(CC(=O)O)CCN(CC(=O)O)CC2)CC1 [compound 3044]

Molecule: CN(CC(=O)N[C@@H](Cc1c[nH]cn1)C(=O)N[C@@H](Cc1c[nH]c2ccccc12)C(=O)N[C@@H](CO)C(=O)N[C@@H](Cc1c[nH]cn1)C(=O)N[C@H](CCCNC(=N)N)C(=O)N[C@@H](Cc1c[nH]c2ccccc12)C(=O)N[C@@H](Cc1ccc(C(=O)c2ccccc2)cc1)C(=O)N1CCC[C@H]1C(=O)NNC(N)=O)C(=O)CNC(=O)CN1CCN(CC(=O)O)CCN(CC(=O)O)CCN(CC(=O)O)CC1 [compound 2717]
EC50 ([1]; Table 13: linker between AA1 and DO3A10CM, EFO-27 cells): 1.53 µM

Molecule: N=C(N)NCCC[C@@H](NC(=O)[C@H](Cc1c[nH]cn1)NC(=O)[C@H](CO)NC(=O)[C@H](Cc1c[nH]c2ccccc12)NC(=O)[C@H](Cc1c[nH]cn1)NC(=O)[C@@H]1CSCN1C(=O)CNC(=O)CN1CCN(CC(=O)O)CCN(CC(=O)O)CCN(CC(=O)O)CC1)C(=O)N[C@@H](Cc1c[nH]c2ccccc12)C(=O)N[C@@H](Cc1ccc(C(=O)c2ccccc2)cc1)C(=O)N1CCC[C@H]1C(=O)NNC(N)=O [BRU-2728]
EC50 [1, 3]: 3.15 µM

EC50 [1]: 0.23 to 0.5 µM
Molecule: CNCC(=O)N[C@@H](CCCNC(=N)N)C(=O)N[C@@H](Cc1c[nH]c2ccccc12)C(=O)N[C@@H](CO)C(=O)N[C@@H](Cc1c[nH]cn1)C(=O)N[C@H](CCCNC(=N)N)C(=O)N[C@@H](Cc1c[nH]c2ccccc12)C(=O)N[C@@H](Cc1ccc(C(=O)c2ccccc2)cc1)C(=O)N1CCC[C@H]1C(=O)NCCCCNC(=O)CN1CCN(CC(=O)O)CCN(CC(=O)O)CCN(CC(=O)O)CC1 [BRU-3041]

EC50 [1]: 0.2 ± 0.07 µM
Molecule: CNCC(=O)N[C@@H](CCCNC(=N)N)C(=O)N[C@@H](Cc1c[nH]c2ccccc12)C(=O)N[C@@H](CO)C(=O)N[C@@H](Cc1c[nH]cn1)C(=O)N[C@H](CCCNC(=N)N)C(=O)N[C@@H](Cc1c[nH]c2ccccc12)C(=O)N[C@@H](Cc1ccc(C(=O)c2ccccc2)cc1)C(=O)N1CCC[C@H]1C(=O)NCC1CCCCN1C(=O)CN1CCN(CC(=O)O)CCN(CC(=O)O)CCN(CC(=O)O)CC1 (stereo partly shown) [compound 3102]

Molecule: CN(CC(=O)N[C@@H](Cc1c[nH]cn1)C(=O)N[C@@H](Cc1c[nH]c2ccccc12)C(=O)N[C@@H](CO)C(=O)N[C@@H](Cc1c[nH]cn1)C(=O)N[C@H](CCCNC(=N)N)C(=O)N[C@@H](Cc1c[nH]c2ccccc12)C(=O)N[C@@H](Cc1ccc(C(=O)c2ccccc2)cc1)C(=O)N1CCC[C@H]1C(=O)NNC(N)=O)C(=O)CNC(=O)CN1CCN(CC(=O)O)CCN(CC(=O)O)CCN(CC(=O)O)CC1 [BRU-2717]
EC50 [1, 3]: 1.55 µM

Molecule: CN(CC(=O)N[C@@H](Cc1c[nH]cn1)C(=O)N[C@@H](Cc1c[nH]c2ccccc12)C(=O)N[C@@H](CO)C(=O)N[C@@H](Cc1c[nH]cn1)C(=O)N[C@H](CCCNC(=N)N)C(=O)N[C@@H](Cc1c[nH]c2ccccc12)C(=O)N[C@@H](Cc1c[nH]c2ccccc12)C(=O)N1CCC[C@H]1C(=O)NNC(N)=O)C(=O)CN1CCN(CC(=O)O)CCN(CC(=O)O)CCN(CC(=O)O)CC1 [BRU-2724] (HELM PEPTIDE1{[O=C(O)CN1CCN(CC(=O)O)CCN(CC(=O)[*:2])CCN(CC(=O)O)CC1].[Sar].H.W.S.H.[dR].W.W.P.[O=C(NN[*:1])[*:2]].[am]}$$$$V2.0)
EC50 [1]: 2.67 µM

Molecule: N=C(N)NCCC[C@H](NC(=O)[C@@H](Cc1ccc2ccccc2c1)NC(=O)CN1CCN(CC(=O)O)CCN(CC(=O)O)CCN(CC(=O)O)CC1)C(=O)N[C@@H](Cc1c[nH]c2ccccc12)C(=O)N[C@@H](CO)C(=O)N[C@@H](Cc1c[nH]cn1)C(=O)N[C@H](CCCNC(=N)N)C(=O)N[C@@H](Cc1c[nH]c2ccccc12)C(=O)N[C@@H](Cc1ccc(C(=O)c2ccccc2)cc1)C(=O)N1CCC[C@H]1C(=O)NCC(=O)N[C@@H](Cc1ccccc1)C(N)=O [compound 2980] ({DOTA}-[d2Nal]RWSH[dR]W[Bpa]PGF-NH2)
EC50 ([1]; EFO-27 cells, competition with [125I-Tyr8]BRU-2477, 90 min): 0.97 µM

Molecule: N=C(N)NCCC[C@@H](NC(=O)[C@H](Cc1c[nH]cn1)NC(=O)[C@H](CO)NC(=O)[C@H](Cc1c[nH]c2ccccc12)NC(=O)[C@H](Cc1c[nH]cn1)NC(=O)CNC(=O)CNC(=O)CN1CCN(CC(=O)O)CCN(CC(=O)O)CCN(CC(=O)O)CC1)C(=O)N[C@@H](Cc1c[nH]c2ccccc12)C(=O)N[C@@H](Cc1ccc(C(=O)c2ccccc2)cc1)C(=O)N1CCC[C@H]1C(=O)NNC(N)=O [BRU-2795]
EC50 [1, 3]: 1.37 µM

Molecule: N=C(N)NCCC[C@@H](NC(=O)[C@H](Cc1c[nH]cn1)NC(=O)[C@H](CO)NC(=O)[C@H](Cc1c[nH]c2ccccc12)NC(=O)[C@H](Cc1c[nH]cn1)NC(=O)CNC(=O)CN1CCN(CC(=O)O)CCN(CC(=O)O)CCN(CC(=O)O)CC1)C(=O)N[C@@H](Cc1c[nH]c2ccccc12)C(=O)N[C@@H](Cc1ccc(C(=O)c2ccccc2)cc1)C(=O)N1CCC[C@H]1C(=O)NNC(N)=O [BRU-2733]
EC50 [1, 3]: 1.18 µM

Molecule: CN(CC(=O)N[C@@H](Cc1c[nH]cn1)C(=O)N[C@@H](Cc1c[nH]c2ccccc12)C(=O)N[C@@H](CO)C(=O)N[C@@H](Cc1c[nH]cn1)C(=O)N[C@H](CCCNC(=N)N)C(=O)N[C@@H](Cc1c[nH]c2ccccc12)C(=O)N[C@@H](Cc1ccccc1)C(=O)N1CCC[C@H]1C(=O)NNC(N)=O)C(=O)CN1CCN(CC(=O)O)CCN(CC(=O)O)CCN(CC(=O)O)CC1 [BRU-2730] (HELM PEPTIDE1{[O=C(O)CN1CCN(CC(=O)O)CCN(CC(=O)[*:2])CCN(CC(=O)O)CC1].[Sar].H.W.S.H.[dR].W.F.P.[O=C(NN[*:1])[*:2]].[am]}$$$$V2.0)
EC50 [1]: 12.9 µM

Molecule: N=C(N)NCCC[C@H](NC(=O)[C@@H](Cc1ccc2ccccc2c1)NC(=O)CC[C@H](CCCCN)NC(=O)CN1CCN(CC(=O)O)CCN(CC(=O)O)CCN(CC(=O)O)CC1)C(=O)N[C@@H](Cc1c[nH]c2ccccc12)C(=O)N[C@@H](CO)C(=O)N[C@@H](Cc1c[nH]cn1)C(=O)N[C@H](CCCNC(=N)N)C(=O)N[C@@H](Cc1c[nH]c2ccccc12)C(=O)N[C@@H](Cc1ccc(C(=O)c2ccccc2)cc1)C(=O)N1CCC[C@H]1C(=O)NCCOCCOCCN [BRU-3100]
EC50 ([1]; read-out: EC50 μM, Underivatized LHRH peptides and LHRH peptides with chelator on N-terminus, EFO-27 cells): 0.14 µM

EC50 [1]: 0.41 µM
Molecule: N=C(N)NCCC[C@H](NC(=O)[C@@H](Cc1ccc2ccccc2c1)NC(=O)[C@@H](N)CCCCNC(=O)CN1CCN(CC(=O)O)CCN(CC(=O)O)CCN(CC(=O)O)CC1)C(=O)N[C@@H](Cc1c[nH]c2ccccc12)C(=O)N[C@@H](CO)C(=O)N[C@@H](Cc1c[nH]cn1)C(=O)N[C@H](CCCNC(=N)N)C(=O)N[C@@H](Cc1c[nH]c2ccccc12)C(=O)N[C@@H](Cc1ccc(C(=O)c2ccccc2)cc1)C(=O)N1CCC[C@H]1C(=O)NNC(N)=O [BRU 3098]

EC50 [1]: 0.23 ± 0.1 µM
Molecule: CNCC(=O)N[C@@H](CCCNC(=N)N)C(=O)N[C@@H](Cc1c[nH]c2ccccc12)C(=O)N[C@@H](CO)C(=O)N[C@@H](Cc1c[nH]cn1)C(=O)N[C@H](CCCNC(=N)N)C(=O)N[C@@H](Cc1c[nH]c2ccccc12)C(=O)N[C@@H](Cc1ccc(C(=O)c2ccccc2)cc1)C(=O)N1CCC[C@H]1C(=O)NCc1cccc(CNC(=O)CN2CCN(CC(=O)O)CCN(CC(=O)O)CCN(CC(=O)O)CC2)n1 [compound 3080]

Molecule: CCN(CC(=O)N[C@@H](Cc1c[nH]cn1)C(=O)N[C@@H](Cc1c[nH]c2ccccc12)C(=O)N[C@@H](CO)C(=O)N[C@@H](Cc1c[nH]cn1)C(=O)N[C@H](CCCNC(=N)N)C(=O)N[C@@H](Cc1c[nH]c2ccccc12)C(=O)N[C@@H](Cc1ccc(C(=O)c2ccccc2)cc1)C(=O)N1CCC[C@H]1C(=O)NNC(N)=O)C(=O)CN1CCN(CC(=O)O)CCN(CC(=O)O)CCN(CC(=O)O)CC1 [BRU-2788]
EC50 [1, 3]: 0.21 µM

EC50 [2]: 970 nM
Molecule: DO3A10CM-[d2Nal]RWSH[dR]W[Bpa]PGF-NH2 (reading uncertain) [BRU-2980]

EC50 [2]: 970 nM
Molecule: XRWSHXWXP (DO3A10CM on N-terminus; AA1 Dnal2; AA6 Darg; AA8 Bpa4; AA10 Ae (aminoethane)) [BRU-2981]

EC50 [2]: 510 nM
B1: BRU-2970 (peptide)
peptide: XRWSHXWXP
modifications: DO3A10CM on N-terminus; AA1 Dnal2; AA6 Darg; AA8 Bpa4; AA10 Aeh2 (aminoethanol; printed Ach2 in paragraph 138)

Source: US20120045393A1 (priority 2009, published 2012)
